For one compound, Km results are on record in patent US9234186B2, “Star-worm luciferase” (OLYMPUS CORPORATION, priority 2011, dated 2016).

The target of this assay is GL3 luciferase derived from P. pyralis (Photinus pyralis, UniProt P08659, K549A/L550V/N119G/N50D/S548I). It counts as biochemical. To be noted: read-out: Km for ATP; 0.1 M Tris-HCl pH 8.0; enzyme solution with 1 mM D-luciferin, 8 mM MgSO4.
Sequence of GL3 luciferase derived from P. pyralis (P08659 whole entry N50D/N119G/S548I/K549A/L550V): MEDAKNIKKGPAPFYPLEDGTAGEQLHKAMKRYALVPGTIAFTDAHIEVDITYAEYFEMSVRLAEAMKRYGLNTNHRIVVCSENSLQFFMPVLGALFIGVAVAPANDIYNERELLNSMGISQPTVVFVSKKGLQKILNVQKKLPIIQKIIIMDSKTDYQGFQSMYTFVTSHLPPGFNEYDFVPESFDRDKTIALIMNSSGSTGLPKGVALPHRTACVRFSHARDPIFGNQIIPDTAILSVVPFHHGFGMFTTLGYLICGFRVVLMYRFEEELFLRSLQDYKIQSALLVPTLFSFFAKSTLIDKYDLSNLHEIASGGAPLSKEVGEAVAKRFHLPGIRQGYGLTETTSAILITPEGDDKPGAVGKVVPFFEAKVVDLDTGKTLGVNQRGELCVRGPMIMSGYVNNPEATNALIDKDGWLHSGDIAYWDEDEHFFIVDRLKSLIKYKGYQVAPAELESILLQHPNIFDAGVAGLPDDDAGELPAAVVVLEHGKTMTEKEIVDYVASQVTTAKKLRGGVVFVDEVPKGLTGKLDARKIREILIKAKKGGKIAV

Consider `Nc1ncnc2c1ncn2[C@@H]1O[C@H](COP(=O)(O)OP(=O)(O)OP(=O)(O)O)[C@@H](O)[C@H]1O` [ATP, Adenosine triphosphate], for which the Km was 64.3 µM.

As a reminder, the Km is the substrate concentration at which the rate is half of its maximum.
